Read-outs that look alike come from different tables or passages of the source.
Tests used:
CCR5 receptor = CCR5 receptor (Homo sapiens, UniProt P51681); assay: [35S]GTPγS binding assay; format: biochemical
Excerpt: [^35S]GTPγS binding assay
CCR5 receptor binds to agonists and changes its conformation which enables it to interact with and activate G protein, a heterotrimer which consists of subunits α and βγ. The capability of G protein α subunit binding to GTP depends on the effect between CCR5 and the agonists, therefore, the amount of α subunit bound GTP should reflect the agonists activity on the CCR5 receptor. In the GTPγS binding assay, [^35S]GTPγS is resistant to the GTPase activity of α subunit, and thus cannot be hydrolyzed when bound to G protein, making it accurate to reflect the receptor activation. Radiolabled [^35S]GTPγS can also serve as marker for detection in place of GTP. When CCR5 is not activated, α subunit is bound to GDP, but when CCR5 is activated, α subunit binds to [^35S]GTPγS, therefore, measurement of the number of the α subunit-bound ^35S-GTPγS can reflect the CCR5 activation level.
CCR5 activation of G-protein was measured according to assays below:
Permanent cell line expressing CHO of CCR5 (available at Euroscreen S.A., Belgium) was lysed by lysis buffer (5 mM Tris HCl, pH 7.5, 5 mM EDTA and 5 mM EGTA), and centrifuged at 15,000×g for 10 min. Cell membrane was resuspended with reaction buffer (5 mM Tris HCl, pH 7.5, 5 mM MgCl2, 1 mM EGTA, 100 mM NaCl), and protein concentrations were determined using Bioford assay (Bio-rad). [^35S]GTPγS binding assay was performed in the 100 μl reaction buffer system, which contains 10 ug membrane protein, 40 uM GDP and 0.5 nM [^35S]GTPγS (1200 Ci/mmol). After adding the study compounds, the system was vortexed and placed on ice for 5 min, and then CCR5 agonist was added (10 nM RANTES or 30 nM MIP1β). After vortexing, the reaction tubes were incubated at 30° C. for 1 h. After the reaction was complete, the reaction tubes were placed on ice and diluted with PBS to terminate the reaction. After suction through the GF/C filter membrane under vacuum, the membrane bound radioactivity was measured with a scintillation counter. Basal binding was measured without presence of agonist, and non-specific binding was measured in the presence of 10 mM nonisotopical GTPγS. The binding ratio of [^35S]GTPγS was calculated according to 100×[c.p.m.sample−c.p.m. non-specific]/[c.p.m.basal−c.p.m. non-specific]. IC50 was the compound concentration at which half of the [^35S]GTPγS binding induced by 10 nM RANTES or 30 nM MIP1β was inhibited, and the value was obtained from the concentration-inhibition curve (6-7 points for concentrations of each compound).

CXCR4 = CXCR4 (Homo sapiens, UniProt P61073); assay: effects on the activation of CXCR4 receptor; settings: at the concentration of 10,000 nM
Sequence of CXCR4 (P61073 whole entry, species assumed): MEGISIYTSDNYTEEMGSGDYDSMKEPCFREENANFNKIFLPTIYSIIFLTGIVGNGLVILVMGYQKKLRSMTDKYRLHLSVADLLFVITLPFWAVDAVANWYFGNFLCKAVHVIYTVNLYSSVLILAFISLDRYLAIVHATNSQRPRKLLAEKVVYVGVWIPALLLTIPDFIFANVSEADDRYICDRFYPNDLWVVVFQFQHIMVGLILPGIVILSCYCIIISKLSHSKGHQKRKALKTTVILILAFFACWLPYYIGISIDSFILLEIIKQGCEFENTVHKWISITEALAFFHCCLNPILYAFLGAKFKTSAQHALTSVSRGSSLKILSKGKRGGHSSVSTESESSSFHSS

CCR1 = target: T1, CCR1 (Homo sapiens, UniProt P32246); assay: effects on the activation of CCR1 receptor; settings: at the concentration of 10,000 nM
T1 sequence (P32246 1-355): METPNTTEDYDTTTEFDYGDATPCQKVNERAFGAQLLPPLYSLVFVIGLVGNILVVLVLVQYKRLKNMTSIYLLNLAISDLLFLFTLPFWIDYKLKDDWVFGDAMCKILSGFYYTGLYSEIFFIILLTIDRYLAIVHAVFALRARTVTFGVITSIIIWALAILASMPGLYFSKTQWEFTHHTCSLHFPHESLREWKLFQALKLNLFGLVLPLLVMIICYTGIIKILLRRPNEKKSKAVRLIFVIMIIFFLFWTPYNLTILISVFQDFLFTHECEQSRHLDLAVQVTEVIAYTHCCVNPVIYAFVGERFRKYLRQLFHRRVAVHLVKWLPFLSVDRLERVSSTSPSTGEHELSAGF

MTT cytotoxicity assay = format: cell-based; settings: human, peripheral blood mononuclear cells (PBMC) and Jurkat cells; MTT
Procedure: (§1) C. MTT Cytotoxicity Assay
(§2) Cells were prepared as single cell suspension, and cell densities were adjusted according to the cell size and cell features. Cells were inoculated with 100 ul culture media into 96 well plates, and incubated in 37° C. incubator (5% CO2, saturated humidity). The seeding densities were as follows: peripheral blood monouclear cells (PBMC) 10^5 cells /well, Jurket 4×10^4 cells/well. 24 h after cell inoculation, the compounds to be tested were added and incubated with cells. 48 h after inoculation, 10 μl MTT (Sigma, USA, 5 mg/ml, diluted with PBS and stored at −20° C.) was added to each well, and incubated for another 4 h in 37° C. incubator. Then add 50 μl formazane solvent (10%SDS-5%isopropanol−0.01M HCl) and incubate overnight. Determine OD570/OD630 nm at spectrophotometer, and calculate CC50 according to the inhibition curve.

[1] = system: peripheral blood monouclear cells (PBMC), Jurket; assay: MTT cytotoxicity assay; format: cell-based; settings: at 10,000 nM
Procedure: as §1, §2

[2] = Table I, [35S]GTPγS binding, read-out: IC50
[3] = [35S]GTPγS binding initiated by 10 nM RANTES, read-out: IC50(nM) ± S.E.
[4] = Table I, class symbols, inhibition at 10,000 nM, read-out: IC50
[5] = [35S]GTPγS binding initiated by 10 nM RANTES, class symbols, inhibition at 10,000 nM, read-out: IC50(nM) ± S.E.

Sequence of CCR5 receptor (P51681 whole entry): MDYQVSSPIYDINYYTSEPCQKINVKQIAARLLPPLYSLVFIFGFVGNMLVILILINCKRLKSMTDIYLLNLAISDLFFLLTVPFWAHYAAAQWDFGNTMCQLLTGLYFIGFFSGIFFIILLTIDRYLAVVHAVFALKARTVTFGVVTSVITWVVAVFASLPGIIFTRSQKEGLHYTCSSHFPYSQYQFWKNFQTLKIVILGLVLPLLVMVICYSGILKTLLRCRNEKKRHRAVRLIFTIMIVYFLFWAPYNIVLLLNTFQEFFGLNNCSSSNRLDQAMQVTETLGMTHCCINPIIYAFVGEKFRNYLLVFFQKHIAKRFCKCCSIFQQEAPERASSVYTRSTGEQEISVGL

IC50 (CCR5 receptor; [2]) [nM]	IC50 (CCR5 receptor; [3]) [nM]	Compound	other results
2510	2510	OC1(CCCc2ccccc2)CCN(CC2CN(Cc3ccccc3)CC2(O)c2ccc(F)cc2)CC1 (centres unmarked) [I-b-k, 1-{[1-benzyl-4-(4-fluorophenyl)-4-hydroxypyrrolidin-3-yl]methyl}-4-(3-phenylpropyl)piper idin-4-ol]	–
401 ± 87.5	401 ± 87.5	CCN(C(=O)OCc1ccccc1)C1CCN(CC2CN(Cc3ccccc3)CC2(O)c2ccccc2)CC1 (centres unmarked) [II-a-a, Benzyl 1-[(1-benzyl-4-hydroxy-4-phenylpyrrolidin-3-yl)methyl]piperidin-4-yl (ethyl)carbamate]	activation or antagonism of CXCR4 receptor (CXCR4): do not activate or antagonize; activation or antagonism of CCR1 receptor (CCR1): do not activate or antagonize; CC50 at 24 h (MTT cytotoxicity assay): ~30000 nM; cytotoxicity on cells [1]: no significant cytotoxicity
565 ± 64.5	565 ± 64.5	CCN(C(=O)OCc1ccccc1)C1CCN(CC2CN(Cc3ccccc3)CC2(O)c2ccc(F)cc2)CC1 (centres unmarked) [II-a-b, Benzyl 1-[(1-benzyl-4-(4-fluorophenyl)-4-hydroxypyrrolidin-3-yl)methyl]piperidin-4-yl (ethyl)carbamate]	–
8.75	8.75	C=CCN(C(=O)OCc1ccccc1)C1CCN(CC2CN(C(=O)C3CCCC3)CC2(O)c2ccccc2)CC1 (centres unmarked) [III-a-h, benzyl allyl(1-((1-(cyclo-pentanecarbonyl)-4-hydroxy-4-phenylpyrrolidin-3-yl)methyl)piperi-din-4-yl) carbamate]	–
4.33	4.33	C=CCN(C(=O)OCc1ccc(OC)cc1)C1CCN(CC2CN(C(=O)C3CCCC3)CC2(O)c2ccccc2)CC1 (centres unmarked) [III-a-i, 4-methoxybenzyl allyl(1-((1-(cyclo-pentanecarbonyl)-4-hydroxy-4-phenylpyrrolidin-3-yl)methyl)piperi-din-4-yl) carbamate]	–
8.87	8.87	C=CCN(C(=O)OCc1ccc(Br)cc1)C1CCN(CC2CN(C(=O)C3CCCC3)CC2(O)c2ccccc2)CC1 (centres unmarked) [III-a-j, 4-bromobenzyl allyl(1-((1-cyclo-pentanecar-bonyl)-4-hydroxy-4-phenylpyrrolidin-3-yl)methyl) piperidin-4-yl) carbamate]	–
6.46	6.46	C=CCN(C(=O)Nc1ccccc1)C1CCN(CC2CN(C(=O)C3CCCC3)CC2(O)c2ccccc2)CC1 (centres unmarked) [III-a-k, 1-allyl-1-(1-((1-(cyclopentane-carbonyl)-4-hydroxy-4-phenylpyrrolidin-3-yl)methyl)piperidin-4-yl)-3-phenylurea]	–
13.6	13.6	C=CCN(C(=O)COc1ccccc1)C1CCN(CC2CN(C(=O)C3CCCC3)CC2(O)c2ccccc2)CC1 (centres unmarked) [III-a-l, N-allyl-N-(1-((1-(cyclopen-tanecarbonyl)-4-hydroxy-4-phenylpyrrolidin-3-yl)methyl)piperi-din-4-yl)-3-phenoxy acetamide]	–

The next lines start with the compound.

Compound	IC50 (CCR5 receptor; [2]) [nM]	IC50 (CCR5 receptor; [3]) [nM]	other results
OC1(c2ccc3c(c2)OCO3)CN(Cc2ccccc2)CC1CN1CCC(c2ccccc2)CC1 (centres unmarked) [I-a-a, 1-benzyl-3-(benzo[1,3]dioxol-5-yl)-4-[(4-phenylpiperidin-1-yl)methyl]pyrrolidin-3-ol]	~10000	~10000	–
O=C(c1ccccc1)N1CC(CN2CCC(c3ccccc3)CC2)C(O)(c2ccccc2)C1 (centres unmarked) [I-b-b, (3-hydroxy-3-phenyl-4-[(4-phenylpiperidin-1-yl)methyl]pyrrolidin-1-yl)(phenyl)methanone]	2860 ± 860	2860 ± 60	–
O=C(c1ccccc1I)N1CC(CN2CCC(c3ccccc3)CC2)C(O)(c2ccccc2)C1 (centres unmarked) [I-b-c, (3-hydroxy-3-phenyl-4-[(4-phenylpiperidin-1-yl)methyl]pyrrolidin-1-yl)(2-iodophenyl) methanone]	1160 ± 224	1160 ± 224	–
O=S(=O)(c1ccccc1)N1CC(CN2CCC(c3ccccc3)CC2)C(O)(c2ccccc2)C1 (centres unmarked) [I-b-d, 3-phenyl-4-[(4-phenylpiperidin-1-yl)methyl]-1-(phenylsulfonyl)pyrrolidin-3-ol]	–	–	IC50 (CCR5 receptor; [4]): > 10000 nM; IC50 (CCR5 receptor; [5]): > 10000 nM
O=C(C1CCCC1)N1CC(CN2CCC(c3ccccc3)CC2)C(O)(c2ccccc2)C1 (centres unmarked) [I-b-e, Cyclopentyl-(3-hydroxy-3-phenyl-4-[(4-phenylpiperidin-1-yl)methyl]pyrrolidin-1-yl)metha none]	1890 ± 615	1890 ± 615	–
OC1(c2ccccc2)CN(Cc2ccccc2)CC1CN1CCC(CCCc2ccccc2)CC1 (centres unmarked) [I-b-g, 1-benzyl-3-phenyl-4-{[4-(3-phenylpropyl)piperidin-1-yl]methyl}pyrrolidin-3-ol]	408 ± 10.5	408 ± 10.5	–
OC1(CCCc2ccccc2)CCN(CC2CN(Cc3ccccc3)CC2(O)c2ccccc2)CC1 (centres unmarked) [I-b-h, 1-[(1-benzyl-4-hydroxy-4-phenylpyrrolidin-3-yl)methyl]-4-(3-phenylpropyl)piperidin-4-ol]	368 ± 52	368 ± 52	–
OC1(c2ccc(F)cc2)CN(Cc2ccccc2)CC1CN1CCC(c2ccccc2)CC1 (centres unmarked) [I-b-j, 1-benzyl-3-(4-fluorophenyl)-4-((4-phenylpiperidin-1-yl)methyl)pyrrolidin-3-ol]	–	–	IC50 (CCR5 receptor; [4]): > 10000 nM; IC50 (CCR5 receptor; [5]): > 10000 nM
CCN(C(=O)OCc1ccccc1)C1CCN(CC2CN(Cc3ccccc3)CC2(C)O)CC1 (centres unmarked) [II-a-c]	–	–	IC50 (CCR5 receptor; [4]): > 10000 nM; IC50 (CCR5 receptor; [5]): > 10000 nM
C=CCN(C(=O)OCc1ccc([N+](=O)[O-])cc1)C1CCN(CC2CN(Cc3ccccc3)CC2(O)c2ccccc2)CC1 (centres unmarked) [III-a-a, 4-nitrobenzyl allyl(1-((1-benzyl-4-hydroxy-4-phenylpyrrolidin-3-yl)methyl)piperidin-4-yl) carbamate]	~10000	~10000	activation or antagonism of CXCR4 receptor (CXCR4): do not activate or antagonize; activation or antagonism of CCR1 receptor (CCR1): do not activate or antagonize
C=CCN(C(=O)OCc1ccc([N+](=O)[O-])cc1)C1CCN(CC2CN(C(=O)c3ccccc3)CC2(O)c2ccccc2)CC1 (centres unmarked) [III-a-b, 4-nitrobenzyl allyl(1-((1-benzoyl-4-hydroxy-4-phenylpyrrolidin-3-yl)methyl)piperidin-4-yl) carbamate]	9.7 ± 0.7	9.7 ± 0.7	activation or antagonism of CXCR4 receptor (CXCR4): do not activate or antagonize; activation or antagonism of CCR1 receptor (CCR1): do not activate or antagonize; CC50 at 24 h (MTT cytotoxicity assay): ~30000 nM; cytotoxicity on cells [1]: no significant cytotoxicity
C[C@H]1[C@@H](CN2CCC(c3ccccc3)CC2)C(O)(c2ccccc2)CN1Cc1ccccc1 (some centres unmarked) [IV-a-a, 1-benzyl-5-methyl-3-phenyl-4-[(4-phenylpiperi-din-1-yl)methyl]py-rrolidin-3-ol]	–	–	IC50 (CCR5 receptor; [4]): > 10000 nM; IC50 (CCR5 receptor; [5]): > 10000 nM

Reference: patent US20070161634A1, “Compounds as CCR5 antagonists” (priority 2004, published 2007)
